Laboratory results as given in patent US20050142169A1, “Palatability enhanced composition and method for animal consumption” (priority 2003, published 2005).

Key:
dogs [1] = experiment: two-bowl preference test, Example 2 (Canine r/d); format: in vivo, dog; settings: dry wt. of kibble
Procedure: Each of the test flavors (2.0%, dry weight basis) was topically applied to a dry, commercial dog food (Canine r/d from Hill's Pet Nutrition, Inc.) after sequential application of soy bean oil (2.0%, dry weight basis) and choice white grease (0.4%, dry weight basis) to form a test composition. Each test composition was compared against a control composition in a palatability test as described in Example 1. The control compositions were prepared by topically applying the commercial liquid palatant enhancer (2.0% dry weight basis) to the dry, commercial dog food (Canine r/d) after sequential application of soy bean oil (2.0%, dry weight basis) and choice white grease (0.4%, dry weight basis). Palatability was determined by comparing the test composition and the control composition in a standard two-bowl preference test over two days with 20 dogs as described in Example 1.

dogs [2] = experiment: two-bowl preference test, Example 3 (Canine w/d, 3.5% test flavor); format: in vivo, dog; settings: dry wt. of kibble, test flavor 3.5%
Procedure: Each of the test flavors (3.5%, dry weight basis) was topically applied to a dry, commercial dog food (Canine w/d from Hill's Pet Nutrition, Inc.) after topical application of a commercial dry palatant enhancer in choice white grease (0.6%, dry weight basis) to form a test composition. Each test composition was compared against a control composition in a palatability test as described in Example 1. The control compositions were prepared by topically applying the commercial liquid palatant enhancer (3.5% dry weight basis) to the dry, commercial dog food (Canine w/d) after application of a commercial dry palatant enhancer in choice white grease (0.6%, dry weight basis). Palatability was determined by comparing the test composition and the control composition in a standard two-bowl preference test over two days with 20 dogs as described in Example 1.

dogs [3] = experiment: two-bowl preference test, Example 4 (Canine w/d, 2.4% test flavor); format: in vivo, dog; settings: dry wt. of kibble, test flavor 2.4%
Procedure: The experiment comprised mixing various amounts of 2,5-dimethyl-4-hydroxy-3(2H)-furanone with a commercial liquid palatant enhancer as a carrier to form a test flavor. Each of the test flavors (2.4%, dry weight basis) was topically applied to a dry, commercial dog food (Canine w/d from Hill's Pet Nutrition, Inc.) after application of a commercial dry palatant enhancer in choice white grease (0.6%, dry weight basis) to form a test composition. […] The control compositions were prepared by topically applying the commercial liquid palatant enhancer (2.4% dry weight basis) to the dry, commercial dog food (Canine w/d) after application of a commercial dry palatant enhancer in choice white grease (0.6%, dry weight basis). Palatability was determined by comparing the test composition and the control composition in a standard two-bowl preference test over two days with 20 dogs as described in Example 1.

cats = experiment: two-bowl preference test, Example 5 (Feline w/d); format: in vivo, cat; settings: dry wt. of kibble
Source text: Finally, a commercial dry palatant enhancer (1.4% dry weight basis) was topically applied to the dry kibbles to complete the test composition.

[4] = Exp. No. 6, second set of experiments, 87.1 ppm
[5] = Exp. No. 7, second set of experiments, 130.5 ppm
[6] = Exp. No. 8, second set of experiments, 174.0 ppm
[7] = Exp. No. 9, second set of experiments, 217.5 ppm
[8] = Exp. No. 10, second set of experiments, 282.8 ppm
[9] = Exp. No. 7, second set of experiments, 5.0 ppm
[10] = Exp. No. 8, second set of experiments, 10.0 ppm
[11] = Exp. No. 9, second set of experiments, 20.0 ppm
[12] = Exp. No. 10, second set of experiments, 30.0 ppm
[13] = Exp. No. 11, second set of experiments, 40.0 ppm
[14] = Exp. No. 12, second set of experiments, 50.0 ppm

CC1=C(O)C(=O)C(C)O1 (centres unmarked) [2,5-dimethyl-4-hydroxy-3(2H)-furanone]
Intake Ratio (dogs [1]; Exp. No. 1, 21.75 ppm): 0.5843
Preference (%) control composition (dogs [1]; Exp. No. 1, 21.75 ppm): 42.9%
Preference (%) test composition (dogs [1]; Exp. No. 1, 21.75 ppm): 50.0%
Status (vs. control) (dogs [1]; Exp. No. 1, 21.75 ppm): Parity
Intake Ratio (dogs [1]; Exp. No. 2, 43.5 ppm): 0.6667
Preference (%) control composition (dogs [1]; Exp. No. 2, 43.5 ppm): 16.7%
Preference (%) test composition (dogs [1]; Exp. No. 2, 43.5 ppm): 77.8%
Status (vs. control) (dogs [1]; Exp. No. 2, 43.5 ppm): Win
Intake Ratio (dogs [1]; Exp. No. 3, 87.1 ppm): 0.5732
Preference (%) control composition (dogs [1]; Exp. No. 3, 87.1 ppm): 29.4%
Preference (%) test composition (dogs [1]; Exp. No. 3, 87.1 ppm): 64.7%
Status (vs. control) (dogs [1]; Exp. No. 3, 87.1 ppm): Parity
Intake Ratio (dogs [1]; Exp. No. 4, 174.0 ppm): 0.5523
Preference (%) control composition (dogs [1]; Exp. No. 4, 174.0 ppm): 31.3%
Preference (%) test composition (dogs [1]; Exp. No. 4, 174.0 ppm): 50.0%
Status (vs. control) (dogs [1]; Exp. No. 4, 174.0 ppm): Parity
Intake Ratio (dogs [1]; Exp. No. 5, 217.5 ppm): 0.5047
Preference (%) control composition (dogs [1]; Exp. No. 5, 217.5 ppm): 66.7%
Preference (%) test composition (dogs [1]; Exp. No. 5, 217.5 ppm): 33.3%
Status (vs. control) (dogs [1]; Exp. No. 5, 217.5 ppm): Parity
Intake Ratio (dogs [1]; Exp. No. 6, 282.8 ppm): 0.4297
Preference (%) control composition (dogs [1]; Exp. No. 6, 282.8 ppm): 47.1%
Preference (%) test composition (dogs [1]; Exp. No. 6, 282.8 ppm): 52.9%
Status (vs. control) (dogs [1]; Exp. No. 6, 282.8 ppm): Parity
Intake Ratio (dogs [2]; Exp. No. 1, 87.1 ppm): 0.7301
Preference (%) control composition (dogs [2]; Exp. No. 1, 87.1 ppm): 16.7%
Preference (%) test composition (dogs [2]; Exp. No. 1, 87.1 ppm): 83.3%
Status (vs. control) (dogs [2]; Exp. No. 1, 87.1 ppm): Win
Intake Ratio (dogs [2]; Exp. No. 2, 130.5 ppm): 0.7323
Preference (%) control composition (dogs [2]; Exp. No. 2, 130.5 ppm): 8.0%
Preference (%) test composition (dogs [2]; Exp. No. 2, 130.5 ppm): 88.0%
Status (vs. control) (dogs [2]; Exp. No. 2, 130.5 ppm): Win
Intake Ratio (dogs [2]; Exp. No. 3, 174.0 ppm): 0.6669
Preference (%) control composition (dogs [2]; Exp. No. 3, 174.0 ppm): 24.0%
Preference (%) test composition (dogs [2]; Exp. No. 3, 174.0 ppm): 76.0%
Status (vs. control) (dogs [2]; Exp. No. 3, 174.0 ppm): Win
Intake Ratio (dogs [2]; Exp. No. 4, 217.5 ppm): 0.5713
Preference (%) control composition (dogs [2]; Exp. No. 4, 217.5 ppm): 40.0%
Preference (%) test composition (dogs [2]; Exp. No. 4, 217.5 ppm): 60.0%
Status (vs. control) (dogs [2]; Exp. No. 4, 217.5 ppm): Parity
Intake Ratio (dogs [3]; Exp. No. 1, 87.1 ppm): 0.6939
Preference (%) control composition (dogs [3]; Exp. No. 1, 87.1 ppm): 16.0%
Preference (%) test composition (dogs [3]; Exp. No. 1, 87.1 ppm): 76.0%
Status (vs. control) (dogs [3]; Exp. No. 1, 87.1 ppm): Win
Intake Ratio (dogs [3]; Exp. No. 2, 130.5 ppm): 0.6616
Preference (%) control composition (dogs [3]; Exp. No. 2, 130.5 ppm): 28.0%
Preference (%) test composition (dogs [3]; Exp. No. 2, 130.5 ppm): 72.0%
Status (vs. control) (dogs [3]; Exp. No. 2, 130.5 ppm): Win
Intake Ratio (dogs [3]; Exp. No. 3, 174.0 ppm): 0.6947
Preference (%) control composition (dogs [3]; Exp. No. 3, 174.0 ppm): 24.0%
Preference (%) test composition (dogs [3]; Exp. No. 3, 174.0 ppm): 76.0%
Status (vs. control) (dogs [3]; Exp. No. 3, 174.0 ppm): Win
Intake Ratio (dogs [3]; Exp. No. 4, 217.5 ppm): 0.7773
Preference (%) control composition (dogs [3]; Exp. No. 4, 217.5 ppm): 8.0%
Preference (%) test composition (dogs [3]; Exp. No. 4, 217.5 ppm): 92.0%
Status (vs. control) (dogs [3]; Exp. No. 4, 217.5 ppm): Win
Intake Ratio (dogs [3]; Exp. No. 5, 282.8 ppm): 0.8079
Preference (%) control composition (dogs [3]; Exp. No. 5, 282.8 ppm): 8.3%
Preference (%) test composition (dogs [3]; Exp. No. 5, 282.8 ppm): 87.5%
Status (vs. control) (dogs [3]; Exp. No. 5, 282.8 ppm): Win
Intake Ratio (dogs [3]; [4]): 0.6058
Preference (%) control composition (dogs [3]; [4]): 40.0%
Preference (%) test composition (dogs [3]; [4]): 60.0%
Status (vs. control) (dogs [3]; [4]): Win
Intake Ratio (dogs [3]; [5]): 0.6857
Preference (%) control composition (dogs [3]; [5]): 24.0%
Preference (%) test composition (dogs [3]; [5]): 76.0%
Status (vs. control) (dogs [3]; [5]): Win
Intake Ratio (dogs [3]; [6]): 0.5568
Preference (%) control composition (dogs [3]; [6]): 40.0%
Preference (%) test composition (dogs [3]; [6]): 56.0%
Status (vs. control) (dogs [3]; [6]): Parity
Intake Ratio (dogs [3]; [7]): 0.5453
Preference (%) control composition (dogs [3]; [7]): 40.0%
Preference (%) test composition (dogs [3]; [7]): 60.0%
Status (vs. control) (dogs [3]; [7]): Parity
Intake Ratio (dogs [3]; [8]): 0.7429
Preference (%) control composition (dogs [3]; [8]): 16.0%
Preference (%) test composition (dogs [3]; [8]): 84.0%
Status (vs. control) (dogs [3]; [8]): Win
Intake Ratio (cats; Exp. No. 1, 5.0 ppm): 0.7676
Preference (%) control composition (cats; Exp. No. 1, 5.0 ppm): 8.0%
Preference (%) test composition (cats; Exp. No. 1, 5.0 ppm): 92.0%
Status (vs. control) (cats; Exp. No. 1, 5.0 ppm): Win
Intake Ratio (cats; Exp. No. 2, 10.0 ppm): 0.8135
Preference (%) control composition (cats; Exp. No. 2, 10.0 ppm): 8.0%
Preference (%) test composition (cats; Exp. No. 2, 10.0 ppm): 88.0%
Status (vs. control) (cats; Exp. No. 2, 10.0 ppm): Win
Intake Ratio (cats; Exp. No. 3, 20.0 ppm): 0.8151
Preference (%) control composition (cats; Exp. No. 3, 20.0 ppm): 12.0%
Preference (%) test composition (cats; Exp. No. 3, 20.0 ppm): 88.0%
Status (vs. control) (cats; Exp. No. 3, 20.0 ppm): Win
Intake Ratio (cats; Exp. No. 4, 30.0 ppm): 0.7546
Preference (%) control composition (cats; Exp. No. 4, 30.0 ppm): 20.0%
Preference (%) test composition (cats; Exp. No. 4, 30.0 ppm): 80.0%
Status (vs. control) (cats; Exp. No. 4, 30.0 ppm): Win
Intake Ratio (cats; Exp. No. 5, 40.0 ppm): 0.7626
Preference (%) control composition (cats; Exp. No. 5, 40.0 ppm): 12.0%
Preference (%) test composition (cats; Exp. No. 5, 40.0 ppm): 88.0%
Status (vs. control) (cats; Exp. No. 5, 40.0 ppm): Win
Intake Ratio (cats; Exp. No. 6, 50.0 ppm): 0.8505
Preference (%) control composition (cats; Exp. No. 6, 50.0 ppm): 8.0%
Preference (%) test composition (cats; Exp. No. 6, 50.0 ppm): 92.0%
Status (vs. control) (cats; Exp. No. 6, 50.0 ppm): Win
Intake Ratio (cats; [9]): 0.9385
Preference (%) control composition (cats; [9]): 0.0%
Preference (%) test composition (cats; [9]): 100.0%
Status (vs. control) (cats; [9]): Win
Intake Ratio (cats; [10]): 0.7990
Preference (%) control composition (cats; [10]): 12.0%
Preference (%) test composition (cats; [10]): 84.0%
Status (vs. control) (cats; [10]): Win
Intake Ratio (cats; [11]): 0.8128
Preference (%) control composition (cats; [11]): 8.0%
Preference (%) test composition (cats; [11]): 92.0%
Status (vs. control) (cats; [11]): Win
Intake Ratio (cats; [12]): 0.8912
Preference (%) control composition (cats; [12]): 4.0%
Preference (%) test composition (cats; [12]): 92.0%
Status (vs. control) (cats; [12]): Win
Intake Ratio (cats; [13]): 0.8012
Preference (%) control composition (cats; [13]): 16.0%
Preference (%) test composition (cats; [13]): 80.0%
Status (vs. control) (cats; [13]): Win
Intake Ratio (cats; [14]): 0.8339
Preference (%) control composition (cats; [14]): 12.5%
Preference (%) test composition (cats; [14]): 87.5%
Status (vs. control) (cats; [14]): Win
